Measurements as given in ChEMBL document CHEMBL5230155, “Recent contributions of quinolines to antimalarial and anticancer drug discovery research” (Eur J Med Chem, 2021).
Values after ≈ are worked out from the molar mass of the structure shown.

Legend:
[1] = target: Cathepsin B (Homo sapiens) (UniProt P07858); assay: Inhibition of human cathepsin B endopeptidase activity at 50 uM relative to control
Plasmodium berghei [2] = assay: Antiplasmodial activity against Plasmodium berghei infected in mouse assessed as reduction in parasitaemia at 35 umol/kg, sc administered for 4 days; assay type: functional; design: scale not given: the % may be the effect or the level left; conditions: dose 35 µmol/kg, time 4 day
Plasmodium berghei [3] = assay: Antiplasmodial activity against Plasmodium berghei infected in mouse assessed as reduction in parasitaemia at 105 umol/kg, po; assay type: functional; design: scale not given: the % may be the effect or the level left; conditions: dose 105 µmol/kg
Hemozoin = assay: Inhibition of beta-hematin formation
Plasmodium berghei [4] = assay: Inhibition of hemozoin formation in Plasmodium berghei infected in mouse; assay type: functional
Plasmodium falciparum [5] = assay: Antimalarial activity against CQ-sensitive Plasmodium falciparum 3D7; assay type: functional, organism-based
Plasmodium falciparum [6] = assay: Antimalarial activity against CQ-resistant Plasmodium falciparum RKL9; assay type: functional, organism-based
Plasmodium berghei [7] = assay: Antiplasmodial activity against Plasmodium berghei infected in mouse assessed as reduction in parasitaemia at 200 mg/kg/day, ip administered for 4 days; assay type: functional; design: scale not given: the % may be the effect or the level left; conditions: time 4 day
PC-3 [8] = assay: Antiproliferative activity against human PC-3 cells; assay type: functional, cell-based
KG-1 = assay: Cytotoxicity against human KG-1 cells; assay type: functional, cell-based
U-937 = assay: Cytotoxicity against human U-937 cells; assay type: functional, cell-based
Raji = assay: Cytotoxicity against human Raji cells; assay type: functional, cell-based
MDA-MB-231 = assay: Cytotoxicity against human MDA-MB-231 cells; assay type: functional, cell-based
HCT-116 = assay: Cytotoxicity against human HCT-116 cells; assay type: functional, cell-based
MCF7 [9] = assay: Antiproliferative activity against human MCF7 cells; assay type: functional, cell-based
RPMI-8226 = assay: Cytotoxicity against human RPMI-8226 cells; assay type: functional, cell-based
Hep 3B2 [10] = assay: Cytotoxicity against human Hep3B cells; assay type: functional, cell-based
[11] = Cytotoxicity against human SLMT-1 cells
G-361 = assay: Antiproliferative activity against human G-361 cells; assay type: functional, cell-based
Tubulin = assay: Inhibition of tubulin polymerization (unknown origin); assay type: protein-complex assay, Homo sapiens
CWR22R = assay: Antiproliferative activity against human 22Rv1 cells; assay type: functional, cell-based
LNCaP C4-2B = assay: Antiproliferative activity against human LNCaP C4-2B cells; assay type: functional, cell-based
DU-145 = assay: Antiproliferative activity against human DU-145 cells; assay type: functional, cell-based
PC-3 [12] = assay: Antitumor activity against human PC-3 cells xenografted in nude mouse assessed as cell growth inhibition at 50 mg/kg/day, ig administered for 21 days; assay type: functional; design: scale not given: the % may be the effect or the level left; conditions: time 21 day
PC-3 [13] = assay: Antitumor activity against human PC-3 cells xenografted in nude mouse assessed as cell growth inhibition at 100 mg/kg/day, ig administered for 21 days; assay type: functional; design: scale not given: the % may be the effect or the level left; conditions: time 21 day
A2780 = assay: Induction of apoptosis in human A2780 cells assessed as accumulation at G2/M phase at 5 uM (reference value: 10%); assay type: functional
MCF7 [14] = assay: Induction of apoptosis in human MCF7 cells assessed as accumulation at G2/M phase at 10 uM (reference value: 10%); assay type: functional
[15] = target: Serine/threonine-protein kinase mTOR (Homo sapiens, UniProt P42345); assay: Inhibition of mTOR (unknown origin)
[16] = target: Dual specificity mitogen-activated protein kinase kinase 1 (Homo sapiens, UniProt Q02750); assay: Inhibition of MEK1 (unknown origin)
Chain of Dual specificity mitogen-activated protein kinase kinase 1 (Q02750 whole entry): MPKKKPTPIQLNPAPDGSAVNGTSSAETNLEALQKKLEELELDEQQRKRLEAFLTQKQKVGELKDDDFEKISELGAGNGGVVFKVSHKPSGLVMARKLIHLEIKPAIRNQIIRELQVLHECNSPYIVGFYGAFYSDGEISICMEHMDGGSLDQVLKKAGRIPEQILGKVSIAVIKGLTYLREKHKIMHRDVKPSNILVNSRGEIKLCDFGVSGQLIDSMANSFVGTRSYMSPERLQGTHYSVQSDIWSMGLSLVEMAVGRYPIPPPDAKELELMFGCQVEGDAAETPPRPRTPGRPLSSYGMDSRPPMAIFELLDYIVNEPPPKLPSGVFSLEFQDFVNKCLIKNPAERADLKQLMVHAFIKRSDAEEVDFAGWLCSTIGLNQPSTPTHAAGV

Plasmodium falciparum [17] = assay: Antimalarial activity against multidrug resistant Plasmodium falciparum Dd2; assay type: functional, organism-based
Plasmodium falciparum [18] = assay: Antimalarial activity against CQ-sensitive Plasmodium falciparum D6; assay type: functional, organism-based
Plasmodium falciparum [19] = assay: Antimalarial activity against CQ-resistant Plasmodium falciparum 7G8; assay type: functional, organism-based
Lymphocyte = assay: Cytotoxicity against mouse spleen lymphocytes; assay type: toxicity, cell-based
HepG2 [20] = assay: Cytotoxicity against human HepG2 cells; assay type: functional, cell-based
[21] = target: Epidermal growth factor receptor (Homo sapiens, UniProt P00533); assay: Inhibition of EGFR (unknown origin)
Chain of Epidermal growth factor receptor (P00533 whole entry): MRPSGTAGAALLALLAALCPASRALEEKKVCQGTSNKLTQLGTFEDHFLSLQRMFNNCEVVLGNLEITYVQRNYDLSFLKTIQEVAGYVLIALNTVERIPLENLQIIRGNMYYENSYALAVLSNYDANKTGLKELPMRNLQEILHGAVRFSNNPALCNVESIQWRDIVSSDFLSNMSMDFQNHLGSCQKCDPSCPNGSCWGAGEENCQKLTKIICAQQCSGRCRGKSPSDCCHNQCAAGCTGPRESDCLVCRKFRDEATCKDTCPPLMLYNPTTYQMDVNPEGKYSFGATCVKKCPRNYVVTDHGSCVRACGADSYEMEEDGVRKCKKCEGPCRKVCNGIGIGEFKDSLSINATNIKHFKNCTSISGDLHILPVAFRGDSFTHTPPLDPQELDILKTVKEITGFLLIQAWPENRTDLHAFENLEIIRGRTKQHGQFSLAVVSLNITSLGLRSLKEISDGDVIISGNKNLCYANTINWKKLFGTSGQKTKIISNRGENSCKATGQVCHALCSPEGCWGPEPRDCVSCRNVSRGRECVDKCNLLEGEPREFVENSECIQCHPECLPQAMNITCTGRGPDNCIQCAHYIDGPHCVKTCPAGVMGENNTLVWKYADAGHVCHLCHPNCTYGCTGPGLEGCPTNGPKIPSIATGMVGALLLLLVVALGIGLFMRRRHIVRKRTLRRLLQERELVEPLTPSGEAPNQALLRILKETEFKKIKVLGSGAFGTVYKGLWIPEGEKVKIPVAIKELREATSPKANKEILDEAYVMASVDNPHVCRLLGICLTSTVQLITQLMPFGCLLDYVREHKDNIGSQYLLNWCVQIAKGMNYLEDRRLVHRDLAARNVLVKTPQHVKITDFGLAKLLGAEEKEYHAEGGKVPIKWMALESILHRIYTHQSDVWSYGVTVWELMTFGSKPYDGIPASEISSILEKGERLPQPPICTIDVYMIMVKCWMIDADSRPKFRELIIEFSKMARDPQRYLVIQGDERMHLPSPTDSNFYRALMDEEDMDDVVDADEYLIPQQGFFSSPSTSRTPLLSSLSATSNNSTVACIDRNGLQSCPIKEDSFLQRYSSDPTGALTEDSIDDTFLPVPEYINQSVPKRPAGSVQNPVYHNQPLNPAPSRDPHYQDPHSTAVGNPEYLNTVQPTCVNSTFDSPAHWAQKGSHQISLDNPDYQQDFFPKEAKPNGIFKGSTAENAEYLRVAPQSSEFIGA

HepG2 [22] = assay: Antitumor activity against human HepG2 cells xenografted in nude mouse assessed as reduction in tumor increment rate at 5 mg/kg/day (reference value: 100%); assay type: functional; design: scale not given: the % may be the effect or the level left
[23] = target: Prostaglandin G/H synthase 2 (Homo sapiens, UniProt P35354)
Chain of Prostaglandin G/H synthase 2 (P35354 whole entry): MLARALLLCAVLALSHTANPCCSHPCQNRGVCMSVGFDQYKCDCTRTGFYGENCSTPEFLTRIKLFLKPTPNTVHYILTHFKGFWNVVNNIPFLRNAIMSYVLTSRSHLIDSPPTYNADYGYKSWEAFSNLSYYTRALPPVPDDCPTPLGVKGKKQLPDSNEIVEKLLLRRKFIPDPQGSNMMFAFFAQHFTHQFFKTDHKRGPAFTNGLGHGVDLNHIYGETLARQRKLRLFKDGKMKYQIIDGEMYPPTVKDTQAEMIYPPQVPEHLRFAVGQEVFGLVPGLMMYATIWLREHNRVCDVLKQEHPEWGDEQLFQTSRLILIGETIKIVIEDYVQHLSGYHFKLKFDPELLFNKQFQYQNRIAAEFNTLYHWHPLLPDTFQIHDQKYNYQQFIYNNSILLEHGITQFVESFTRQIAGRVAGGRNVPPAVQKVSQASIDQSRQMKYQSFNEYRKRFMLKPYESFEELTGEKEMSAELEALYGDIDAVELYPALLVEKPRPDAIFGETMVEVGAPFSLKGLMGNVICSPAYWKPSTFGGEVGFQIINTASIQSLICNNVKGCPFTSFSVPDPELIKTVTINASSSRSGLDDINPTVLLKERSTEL
Description: Inhibition of COX-2 (unknown origin)

SK-OV-3 = assay: Antiproliferative activity against human SK-OV-3 cells; assay type: functional, cell-based
NCI-H460 = assay: Antiproliferative activity against human NCI-H460 cells; assay type: functional, cell-based
BEL-7404 tumor cell line = assay: Antiproliferative activity against human BEL-7404 cells; assay type: functional, cell-based
MDA-MB-453 = assay: Antiproliferative activity against human MDA-MB-453 cells; assay type: functional, cell-based
SNU-423 = assay: Antiproliferative activity against human SNU-423 cells; assay type: functional, cell-based
RT-112 = assay: Antiproliferative activity against human RT-112 cells; assay type: functional, cell-based
MGC-803 = assay: Antiproliferative activity against human MGC-803 cells
Hep 3B2 [24] = assay: Cytotoxicity against human Hep3B cells assessed as relative value at 15 uM after 48 hrs by MTS method; assay type: functional
UMUC3 = assay: Antiproliferative activity against human UMUC3 cells; assay type: functional, cell-based
RT-4 = assay: Antiproliferative activity against human RT-4 cells; assay type: functional, cell-based
T-24 = assay: Antiproliferative activity against human T24 cells; assay type: functional, cell-based
[25] = Binding affinity to human nRNP
HeLa = assay: Antitumor activity against human HeLa cells xenografted in mouse assessed as reduction in tumor weight at 20 mg/kg/day, ip for 3 weeks; assay type: functional; design: scale not given: the % may be the effect or the level left
SMMC-7721 = assay: Cytotoxicity against human SMMC-7721 cells; assay type: functional, cell-based
Huh-7 = assay: Cytotoxicity against human Huh-7 cells; assay type: functional, cell-based
[26] = Cytotoxicity against human L02 cells; assay type: toxicity, cell-based
[27] = Cytotoxicity against human MRC5 cells; assay type: toxicity, cell-based
HepG2 [28] = assay: Antitumor activity against human HepG2 cells xenografted in nude mouse assessed as reduction in tumor increment rate at 20 mg/kg/day (reference value: 100%); assay type: functional; design: scale not given: the % may be the effect or the level left
Plasmodium falciparum [29] = assay: Antimalarial activity against CQ-resistant Plasmodium falciparum W2; assay type: functional, organism-based
Plasmodium falciparum [30] = assay: Selectivity index, ratio of IC50 for Chloroquine resistant Plasmodium falciparum W2 to IC50 for Chloroquine sensitive Plasmodium falciparum 3D7; assay type: functional

O=[N+]([O-])c1ccc(O)c2ncccc12
inhibition [1]: 27.7%

C[C@@H]1CCC2[C@@H](C)[C@H](OC(=O)CCC(=O)OCCNc3ccnc4cc(Cl)ccc34)O[C@@H]3O[C@@]4(C)CC[C@@H]1[C@@]23OO4 (some centres undefined)
Activity (Plasmodium berghei [2]): 95.2% | Activity (Plasmodium berghei [3]): 78.6% | IC50 (Hemozoin): 560000 nM | inhibition (INH) (Plasmodium berghei [4]): 71.9%

Cc1ccc(/C=C2/SC(c3ccc(Cl)cc3)N(Nc3cc(C)c4ccccc4n3)C2=O)cc1 (centres undefined)
IC50 (Plasmodium falciparum [5]): 0.423 µg/mL | IC50 (Plasmodium falciparum [6]): 0.824 µg/mL (≈ 1.75 µM) | Activity (Plasmodium berghei [7]): 73.4%

O=C(Nc1ccc(NC(=O)c2ccc(Nc3ccnc4ccccc34)cc2)cc1)OCc1ccccc1
IC50 (PC-3 [8]): 300 nM | IC50 (KG-1): 300 nM | IC50 (U-937): 300 nM | IC50 (Raji): 300 nM | IC50 (MDA-MB-231): 300 nM

COc1cccc2c1C(=O)c1c(O)c3c(c(O)c1C2=O)C[C@@](O)(C(=O)CO)C[C@@H]3O[C@H]1C[C@H](N)[C@H](O)[C@H](C)O1 [DOXORUBICIN]
IC50 (HCT-116): 410 nM | IC50 (MCF7 [9]; mcf7): 1980 nM | IC50 (RPMI-8226): 410 nM | IC50 (Hep 3B2 [10]): 270 nM | IC50 [11]: 270 nM | IC50 (G-361): 2440 nM

COc1cc(N(CCSC(=S)N2CCN(CCO)CC2)S(=O)(=O)c2cccc3cccnc23)cc(OC)c1OC
IC50 (Tubulin): 4020 nM | IC50 (PC-3 [8]): 430 nM | IC50 (CWR22R): 670 nM | IC50 (LNCaP C4-2B): 670 nM | IC50 (DU-145): 670 nM | Activity (PC-3 [12]): 35.6% | Activity (PC-3 [13]): 61.4%

COc1cc(C(=O)/C=C/c2c(Cl)nc3c(C(=O)c4ccccc4)cccc3c2OC)cc(OC)c1OC
Activity (A2780): 50% | Activity (MCF7 [14]): 50%

Cc1c(Cc2cccc(N(C)S(=O)(=O)CCCNCCCC(=O)N3CCN(c4ccc(Nc5c(C(N)=O)cnc6ccc(-c7cnc8ccccc8c7)cc56)cc4C(F)(F)F)CC3)c2)c(=O)oc2cc(OC(=O)N(C)C)ccc12
GI50 (HCT-116): 4660 nM | IC50 [15]: 190 nM | IC50 [16]: 980 nM

Clc1ccc2c(NCCCN3CCC(Nc4ccnc5cc(Cl)ccc45)CC3)ccnc2c1
IC50 (Plasmodium falciparum [17]): 0.36 nM | IC50 (Plasmodium falciparum [18]): 0.15 nM | IC50 (Plasmodium falciparum [19]): 0.33 nM | LC50 (Lymphocyte): 190 nM

Cc1ccc2nc(/C=C/c3ccc(N(C)C)cc3)cc(-c3nnc(N)s3)c2c1
IC50 (HepG2 [20]; Homo sapiens, HepG2): 7.7 µg/mL | IC50 (HCT-116): 7.7 µg/mL | IC50 [21]: 1110 nM

CC(=O)O[C@H]1C(=O)[C@@]2(C)[C@H]([C@H](OC(=O)c3ccccc3)[C@]3(O)C[C@H](OC(=O)[C@H](O)[C@@H](NC(=O)c4ccccc4)c4ccccc4)C(C)=C1C3(C)C)[C@]1(OC(C)=O)CO[C@@H]1C[C@@H]2O [PACLITAXEL]
Activity (HepG2 [22]): 19%

COc1ccc2ccc(F)c(CC(=O)N/N=C/c3cccc(C(F)(F)F)c3)c2n1
IC50 (MCF7 [9]; Homo sapiens, MCF7): 2070 nM | IC50 [23]: 130 nM | IC50 (G-361; read-out: IC50): 2070 nM

O=c1[nH]cc(F)c(=O)[nH]1 [FLUOROURACIL]
IC50 (HepG2 [20]; Homo sapiens, HepG2): 5.3 µg/mL | IC50 (HepG2 [20]; hepg2): 26300 nM | IC50 (HCT-116): 5.3 µg/mL | IC50 (SK-OV-3): 26300 nM | IC50 (NCI-H460): 26300 nM | IC50 (BEL-7404 tumor cell line): 26300 nM | IC50 (MDA-MB-453): 7400 nM | IC50 (SNU-423): 7400 nM | IC50 (RT-112): 7400 nM | IC50 (MGC-803): 10400 nM | IC50 (PC-3 [8]): 10400 nM

O=S(=O)(Nc1cccc2cccnc12)c1cccc2cccnc12
IC50 (MCF7 [9]; Homo sapiens, MCF7): 1230 nM | fold change (FC) (Hep 3B2 [24]): 0.23 | IC50 (Hep 3B2 [10]): 1230 nM | IC50 [11]: 1230 nM

COc1cc(N(CCCSC(=S)N2CCN(C(C)=O)CC2)S(=O)(=O)c2cccc3cccnc23)cc(OC)c1OC
IC50 (MDA-MB-453): 700 nM | IC50 (SNU-423): 700 nM | IC50 (RT-112): 700 nM | IC50 (UMUC3): 900 nM | IC50 (RT-4): 1900 nM | IC50 (T-24): 2600 nM | IC50 (Tubulin): 2900 nM

COc1ccc(C(=O)/C=C/c2cc(N3CCOCC3)c3cc([N+](=O)[O-])ccc3n2)cc1
Kd [25]: 4600 nM | Activity (HeLa): 69.3%

COc1ccc(/C=N/NC(=O)c2ccc(Nc3ccnc4ccccc34)cc2)cc1OC
IC50 (HepG2 [20]; Homo sapiens, HepG2): 126000 nM | IC50 (SMMC-7721): 6300 nM | IC50 (Huh-7): 6300 nM | IC50 [26]: 16100 nM | IC50 [27]: 16100 nM

Cc1cc2nc(-c3cc4ccccc4nc3Cl)[nH]c2cc1C
IC50 (HepG2 [20]; Homo sapiens, HepG2): 7540 nM | IC50 (SK-OV-3): 7540 nM | IC50 (NCI-H460): 7540 nM | IC50 (BEL-7404 tumor cell line): 7540 nM | Activity (HepG2 [28]): 19.5%

CN1CCN(CCNCc2ccc(-c3cc(-c4ccc(CNCCN5CCN(C)CC5)cc4)c4ccccc4n3)cc2)CC1
IC50 (Plasmodium falciparum [5]): 2420 nM | IC50 (Plasmodium falciparum [29]): 130 nM | Ratio IC50 (Plasmodium falciparum [30]): 20
